# Patent US6520981B1, “Significance of dosimetry in photodynamic therapy of injured arteries” (The General Hospital Corporation, priority 1999, dated 2003)
# Where “and” joins values, the source holds several entries; their conditions need not be identical. Equal entries are not always repeated. Entries after “also recorded” stand apart in the source; their conditions may differ. Where two headings read alike, the source gives them in different places. Marks after values point to notes of the source that are not given here.
# Assays:
# [1] = test system: balloon-injured rat common carotid artery (intimal hyperplasia); experiment: PDT with locally delivered methylene blue in balloon-injured rat carotid artery: light microscopy and histomorphometry; format: in vivo; conditions: 2 weeks
# Protocol: Control animals included BI along and MB after BI alone. Arteries were analyzed after 2 weeks with morphometric evaluation (per group: n=6), and in situ hybridization for versican and pro-collagen type 1 gene expression (digitized image pixel analyses, n=9).
# Common carotid artery balloon injury was performed using a 2-French Fogarty embolectomy catheter (Baxter Health Care Corporation, Edwards Division, Irvine, Calif.). […] In brief, the balloon was introduced into the common carotid artery and inflated with 0.65 mL of air. […] The catheter was connected via a three-way stopcock to a Stratham transducer for synchronous pressure monitoring (HP 78205C, Hewlett Packard, Mass.). […] Under low ambient light, the drug was injected into the common carotid artery with 180 mm HG for 2 minutes. […] The external carotid artery was ligated, and the blood flow was restored.
# The animals were randomly assigned to the following 3 groups: Group PDT (n=6): balloon injury followed by application of photosensitizer and laser irradiation; Group PS (n=6): balloon injury followed by the photosensitizer MB application alone; Group BI (n=6): no treatment other than balloon-injury (BI) to the carotid artery.
# Photodynamic Therapy: Five minutes after local delivery of MB, the common carotid artery was externally irradiated with 660 nm laser light, emitted by a diode laser (Alto-Surgeon SRG-3, Polaroid, Cambridge, Mass.) to deliver a total fluence of 100 J/cm^2 at an irradiance of 100 mW/cm^2. The diode laser was coupled to a 600-μm optical fiber through a microlens to obtain a uniform 1-cm spot. The targeted artery was submerged in 0.9% saline and placed on a right-angled reflective mirror to achieve uniform irradiation, as previously described. The irradiated vessel segment was marked with periadventitial India ink.
# Harvest: Animals were sacrificed 14 days after surgery by an overdose of pentobarbital. Following sacrifice, the iliac artery was cannulated and the arterial system was flushed with saline and in situ perfusion-fixed at 150 mm Hg with 10% buffered formalin. The balloon-injured vessel segments and the contralateral carotid artery were excised and placed in fresh 10% buffered formalin. After embedding in paraffin, multiple 4 μm thick cross sections were obtained from the proximal, mid, and distal vessel segments.
# Vessel Histomorphometry: The histologic analyses of the arteries stained with hematoxylin and eosin consisted of both a descriptive and quantitative morphometric evaluation. The morphometry of the arteries was measured using a digitizing measurement system (Color CCB Camera Model 2222-1010, COHU Inc., San Diego, Calif.) and analyzed using the Scion Image software (Scion Corporation, Frederick, MY). Intimal area, medial area, and vessel diameter, as delineated by the external elastic lamina, were measured and calculated as previously described. In addition, adventitial cells were counted manually and are expressed as the number of cells per high power microscopic field (×400). Because the area of the adventitia varies within the different specimens, high power fields were used for all quantitative measurements of adventitial cell numbers and gene expression in the in situ hybridization experiments.
# [2] = test system: versican mRNA; experiment: Digoxigenin in situ hybridization, versican; format: in vivo, rat; conditions: group PDT: MB 250 μg/ml, 660 nm, 100 J/cm^2; 2 weeks
# Text: (§1) Digoxigenin in situ hybridization: Groups for in situ hybridization included PDT, BI, and the uninjured contralateral artery (n=3). […] Complementary DNAs (cDNAs) for type I procollagen and versican core protein were obtained as PCR fragments with each gene specific primers in which reverse primers contain T7 RNA polymerase recognition sequence at their 5′ end. Primer sequences were as follows. […] Digoxigenin-labeled antisense RNA probes were synthesized using a RNA labeling kit (Boehringer, Mannheim, Germany) according to the manufacturers' instruction and the in situ hybridization protocol used with modifications as previously described. Arterial sections were deparafinized in xylene and rehydrated through graded ethanol solutions, washed, and treated with 5 μg/ml proteinase K (Boehringer) for 30 min at 37° C. […] The hybridized probes were detected using an alkaline phosphatase conjugated anti-digoxigenin monoclonal antibody (Boehringer), and the colored product was visualized using Nitro Blue tetrazolium (Boehringer) and 5-bromo-4-chlor-indonyl-phosphate (Boehringer) as substrates. […] For statistical analysis, the median data point of every specimen was assessed and used to compare control versus PDT procollagen type I and veriscan gene expression.
# (§2) Statistical Evaluation: All values are expressed as a mean ± SD.
# [3] = test system: procollagen type I mRNA; experiment: Digoxigenin in situ hybridization, procollagen type I; format: in vivo, rat; conditions: group PDT: MB 250 μg/ml, 660 nm, 100 J/cm^2; 2 weeks
# Text: as §1, §2
# [4] = test system: basic fibroblast growth factor (bFGF); experiment: Immunohistochemistry for bFGF in arteries after BPD-PDT; format: in vivo, rat; conditions: 100 J/cm^2
# Text: Harvest. […] The carotid artery was flushed with saline.
# Immunohistochemistry. Immunohistochemistry for basic fibroblast growth factor (bFGF) was undertaken to verify possible differential, dose-dependent effects on this growth factor which resides in the vascular wall and is known to play an important role in the early development of IH in rats. Monoclonal antibody to bFGF (Zymogenetics, Seattle, Wash.) was used to verify the presence of bFGF in the specimens using the two-layer indirect immunoperoxidase technique previously described. Briefly, the primary antibody (1:1000) was labeled by biotinylated horse anti-mouse immunoglobulin (Vector Laboratories, Burlingame, Calif.) and counterstained with nuclear fast red (Sigma Chemical Co., St. Louis, Mo.). Normal arteries were used as positive control, and arteries stained with a nonspecific primary antibody were used as negative controls to exclude nonspecific binding by the primary or secondary antibody.
# [5] = Observation of BPD-treated animals at harvest; format: in vivo, rat; conditions: rats after local delivery of BPD
# [6] = test system: balloon-injured rat common carotid artery (intimal hyperplasia); conditions: for Intimal Area: 690 nm
# Protocol: Male Sprague Dawley rats (Charles River Breeding Laboratories, Wilmington, Mass.), weighing 350-450 g, were anesthetized with intramuscular Ketamine (75 mg/kg), Xylazine (5 mg/kg), and Atropine (40 μg/kg). A midline neck incision was performed and the left carotid artery was exposed. After clamping the common carotid and the internal carotid artery, a 2 F (French Fogarty embolectomy catheter (Baxter Health Care Corporation, LIS Division, Irvine, Calif.) was introduced into the common carotid artery via the external carotid artery. The common carotid artery was subsequently injured by inflating the balloon with 0.2 ml air and gently passing and rotating the catheter three times.
# After balloon-injury, a 22 gauge polyethylene catheter was advanced through the external carotid arteriotomy into the distal portion of the common carotid artery and secured with a suture. The catheter was connected via three-way stopcock to a Statham transducer for synchronous pressure monitoring with a digital pressure manometer (HP 78205C, Hewlett Packard, Palo Alto, Calif.). The second generation photosensitizer benzoporphyrin-derivative monoacidic ring (BPD-MA Verteporfine®, Quadra Logic Technologies Inc., Vancouver, BC, Canada), provided as a liposomal preparation, was reconstituted in distilled water (2 mg/ml) and diluted in physiologic saline to a final concentration of 25 μg/ml. Once the arterial segment was isolated with microclamps under low ambient light, BPD was delivered at a pressure of 400 mm Hg for two minutes. […] Following aspiration of BPD from the arterial lumen, the artery was flushed with saline, the catheter was removed, and blood flow was restored to the internal carotid artery.
# Photodynamic Therapy. Fifteen minutes following delivery of the PS to the artery wall, the common carotid artery was externally irradiated as previously described. Briefly, an argon-pumped dye laser (Coherent Innova I 100 and Coherent CR 599, Coherent, Palo Alto, Calif.) was tuned to 690 nm light at an irradiance of 100 mW/cm^2, coupled to a 600 μm optical fiber, and using a 5-mm focal length lens magnified to obtain a uniform 2-cm spot. The targeted artery was submerged in physiologic saline, placed on a right-angled reflective mirror, and optically isolated with black, light-impervious tape.
# Experimental groups. The arteries were assigned to four different experimental groups: group 1 (n=6) and 2 (n=6) consisted of arteries which were pressurized with 0.5 μg/ml BPD and irradiated at a fluence of 50 and 100 J/cm^2 respectively. Group 3 (n=15) and 4 (n=4) were pressurized with 25 μg/ml BPD and irradiated at 100 or 200 J/cm^2 respectively.
# Harvest. The animals were sacrificed 24 hours and 2 weeks after PDT. The carotid artery was flushed with saline. They were either in situ perfusion-fixed at 80 mm Hg with 10% buffered formalin for light microscopy or rinsed with saline, embedded in Tissue tek O.C.T. compound® (Miles Inc. Elkhart, IN) and stored at −70° C. for immunohistochemistry.
# Histology. For each animal, the harvested artery was processed into three segments: proximal, mid, and distal. Multiple five-μm thick cross-sections were prepared from each specimen of the artery, and a representative from each segment was analyzed. All paraffin-embedded specimens were stained with hematoxylin and eosin. Arterial diameters, as delineated by the length of the internal elastic lamina (IEL circumference=πd), as well as intimal—and medial areas were measured using morphometric analysis with a camera lucida digitizing measurement system as previously described (Sigma Scan, Jandel Scientific, San Rafael, Calif.).
# [7] = 15 minutes following delivery of BPD at 400 mm Hg for two minutes; previous studies; cited from earlier work
# [8] = test system: intimal hyperplasia; conditions: for as long as 6 months after PDT; cited from earlier work
# [9] = group PDT: MB 250 μg/ml, 660 nm, 100 J/cm^2
# [10] = group PS: MB alone without irradiation
# [11] = group 1: 0.5 μg/ml BPD, 50 J/cm^2, 2 weeks
# [12] = group 2: 0.5 μg/ml BPD, 100 J/cm^2, 2 weeks
# [13] = group 3: 25 μg/ml BPD, 100 J/cm^2, 2 weeks
# [14] = group 4: 25 μg/ml BPD, 200 J/cm^2
compound,measurement,setting,value
"CN(C)c1ccc2nc3ccc(=[N+](C)C)cc-3sc2c1 [MB, methylene blue]",Diameter,[1]; [9],0.95±0.04 mm
same,Histology of arteries,[1]; [9],"without evidence of microthrombi, inflammation, or intimal thickening; also recorded: no IH was seen"
same,Medial Area,[1]; [9],0.063±0.004 mm^2
same,Number of adventitial cells per high power field,"[1]; group PDT: MB 250 μg/ml, 660 nm, 100 J/cm^2, ×400",39±9.4
same,IH area,"[1]; group PDT: balloon injury, MB 250 μg/ml locally, 660 nm, 100 J/cm^2",0±0 mm^2
same,Histology of arteries,[1]; [10],no MB-induced modulation of the vascular injury healing response; also recorded: IH formation was demonstrated
same,Medial Area,[1]; [10],0.085±0.005 mm^2
same,IH area,"[1]; group PS: balloon injury, MB alone without irradiation",0.183±0.05 mm^2
same,"Versican mRNA in adventitia, % of positive pixels per high power field",[2],1.13%±0.39% and 1.11±0.37%
same,"Pro-collagen type I mRNA in adventitia, % of positive pixels per high power field",[3],4.13%±1.25%
same,Artery thrombosis,"MB study, at harvest (14 days)",No artery thrombosis
same,Signs of toxicity,"rat, in vivo",no signs of toxicity
benzoporphyrin-derivative monoacid ring [BPD],bFGF staining of the vascular wall,"[4]; group 2 / stage II: 0.5 μg/ml BPD, 24 hours after PDT",evidence of bFGF in all layers of the vascular wall; also recorded: bFGF could still be detected in all layers of the vascular wall; also recorded: positive staining for bFGF in all layers of the vascular wall; also recorded: avid brown staining in all layers of the vascular wall
same,bFGF staining of the vascular wall,"[4]; group 3 / stage III: 25 μg/ml BPD, two weeks after PDT","evidence for bFGF in the flat cells, presumably endothelial cells, at the luminal surface; also recorded: positive bFGF staining only of endothelial cells in the intima and fibroblasts in the adventitia"
same,Signs of systemic phototoxicity,[5],no signs of systemic phototoxicity
same,"Intimal hyperplasia, histology","[6]; group 1 / stage I: 0.5 μg/ml BPD, 50 J/cm^2, 2 weeks",significant IH
same,Diameter,[6]; [11],0.93 ± 0.02 mm
same,Medial Area,[6]; [11],0.18 ± 0.01 mm^2
same,Intimal Area,[6]; [11],0.18±0.03 mm^2
same,Diameter,[6]; [12],0.95 ± 0.06 mm
same,Medial Area,[6]; [12],0.18 ± 0.05 mm^2
same,Intimal Area,[6]; [12],0.14±0.03 mm^2
same,Diameter,[6]; [13],0.82 ± 0.04 mm
same,Medial Area,[6]; [13],0.10 ± 0.02† mm^2
same,Intimal Area,[6]; [13],0.01 ± 0.01*‡ mm^2
same,Diameter,[6]; [14],0.91 ± 0.03 mm
same,Medial Area,[6]; [14],0.17 ± 0.01 mm^2
same,Photosensitizer fluorescence in the arterial wall,[7],detected through the entire arterial wall
chloraluminum sulfonated phthalocyanin,Inhibition of IH after PDT,[8],inhibition of IH without arterial degeneration
